Key:
treated subjects = settings: Clinical Phase II trials (Abdulqawi et al 2015; Strand et al 2015); cited from earlier work
[1] = system: human P2X3 and human P2X2/3 receptors; settings: cited from earlier work
human vagus nerve = experiment: Vagal depolarization - inhibition of human vagus nerve by P2X3 inhibitors (grease-gap recording); settings: TRPV4 agonist GSK 1016790A 300 nM; FIG. 1
Experimental: The aim of the study is to test the effects of P2X3 antagonists on the deoplarisation of human vagus nerve as an ex vivo measure of blocking Chronic Cough. Human vagal tissue was dissected from 4 human lungs (obtained from healthy tissue donors).
The tissue was assayed using an O2/CO2 gassed, grease-gap recording system as described in Birrell et al, Am J Respir Crit Care Med. 2009, 180:1042-1047; Bonvini et al, J Allergy Clin Immunol. 2016, 138 (1), 249-261, Bonvini et al, Naunyn Schmiedebergs Arch Pharmacol. 2015, 388: 401-420. Briefly, after the tissue had stabilised it was exposed to two 2 minute challenges with a sub-maximal concentration of agonists (TRPV4 agonist GSK 1016790A, 300 nM). Sub-maximal concentration means a concentration where no full efficacy is observed, i.e. stimulation with the agonist within the dynamic range. Typical values are 80% of the maximal efficacy that can be achieved. The tissue was then exposed to vehicle (0.1 Vol % DMSO solution in Krebs buffer) or test compound for 10 minutes and then the tissue was re-challenged with agonist in the presence of the test compound. […] Only one experiment was performed on each piece of tissue and n=4 means tissue from 4 different lungs[…]. The data was electrophysiologically recorded as actual depolarisation levels and presented as mean percentage inhibition. Results can be found in FIG. 1.

healthy young males [2] = experiment: Adverse events (side effect profile) in multiple dose study; format: in vivo, humans
Experimental: (§1) In a first part of a two-part, double-blind, placebo-controlled, randomized, parallel-group study safety and tolerability of ascending repeated oral doses of the drug to be tested are assessed in 47 healthy male volunteers, followed by a second two-way crossover administration of four different doses in 40 patients with refractory chronic cough to assess safety, tolerability and efficacy for proof of concept.
(§2) In the first part of the above-described protocol, 3-(5-Methyl-1,3-thiazol-2-yl)-5-[(3R)-tetrahydrofuran-3-yloxy]-N-{(1R)-1-[2-(trifluoromethyl)pyrimidin-5-yl]ethyl}-benzamide has been administered as multiple oral dose with increasing amounts starting from 10 mg per subject twice daily to 750 mg per subject twice daily in comparison with placebo to healthy young males. […] The treatment duration was 14 days.
as §1, with “study, the” for “study”, “36” for “47”, “second part with a” for “second”, “in” for “in 40”
(§3) The treatment duration was 14 days.

healthy young males [3] = experiment: Taste related adverse events recorded during clinical studies; format: in vivo, humans
From the text: Taste related adverse events describe adverse events that lead to a change in taste perception, e.g. dysgeusia (distortion of taste), hypogeusia (decrease in taste sensitivity) and ageusia (complete lack of taste).
Adverse events (AE) in the context of a clinical study are defined as any untoward medical occurrence (i.e. any unfavorable and unintended sign including abnormal laboratory findings, symptom or disease) in a patient or clinical investigation subject after providing written informed consent for participation in the study. Therefore, an AE may or may not be temporally or causally associated with the use of a medicinal (investigational) product.
3-(5-Methyl-1,3-thiazol-2-yl)-5-[(3R)-tetrahydrofuran-3-yloxy]-N-{(1R)-1-[2-(trifluoromethyl)pyrimidin-5-yl]ethyl}benzamide has been administered as single oral dose with increasing amounts starting from 10 mg per subject to 800 mg per subject in comparison with placebo to healthy young males.
as §2, §3

healthy young males [4] = experiment: Taste assessment test (Taste Strips) during clinical studies; format: in vivo, humans
From the text: The Taste Strips (Burghart Messtechnik GmbH) are a validated test method for ascertaining tasting performance (ISO certified). The following concentrations have been applied on the taste strips: sweet: 0.4, 0.2, 0.1, 0.05 g/ml sucrose; sour: 0.3, 0.165, 0.09, 0.05 g/ml citric acid; salty: 0.25, 0.1, 0.04, 0.016 g/ml sodium chloride; bitter: 0.006, 0.0024, 0.0009, 0.0004 g/ml quinine hydrochloride. The Strips were used to check the tasting performance of the whole mouth by placing a Taste Strip on the tongue and closing the mouth (the subject can move the tongue). […] Afterwards and between the 4 taste strips the mouth was rinsed with a sip of tap water according to individual needs. […] The taste strips were presented in a pseudo-randomized order (increasing concentration for each quality) and placed on the tongue. The subject's task was to choose one of five possible answers on a form (sweet, sour, salty, bitter, no taste). Before and after each testing, the mouth was rinsed with a sip of tap water according to individual needs. The lowest concentrations of each taste quality should have been identified by half of the healthy subjects only; the highest concentration should have been identified by approximately 100% of the subjects.
The taste strips were tested under blinded conditions to the subject. The number of correctly identified taste strips per subjects was counted with the maximum number achievable being 18 points (4 concentration/taste quality plus to blank paper strips).

[5] = multiple oral dose 10 mg to 750 mg twice daily, 14 days

SMILES	taste disturbances in treated subjects (treated subjects)	selectivity P2X3 homomer versus P2X2/3 [1]	effect size / efficacy in blocking vagus nerve depolarization, compared between compounds (human vagus nerve)	nausea (healthy young males [2]; multiple dose study, 50 mg dose)	adverse events physical dependency, increased heart rate, xerostomia, constipation, drowsiness and sedation (healthy young males [2]; [5])	taste AE duration (healthy young males [3]; 1 subject treated with 200 mg twice daily, on day 11)	influence on perception of taste based on spontaneously reported adverse events (healthy young males [3]; [5])	course of change in taste perception (healthy young males [3]; one subject treated with 200 mg twice daily)	taste AE duration (healthy young males [3]; one subject treated with 750 mg twice daily, on day 3)	taste related adverse events (healthy young males [3]; single oral dose, 10 mg to 800 mg per subject, versus placebo)	effects on taste perception based on the taste assessment test (healthy young males [4]; [5])	changes in taste scores under treatment (healthy young males [4]; single oral dose 10 mg to 800 mg)	effects on taste perception based on the taste assessment test (healthy young males [4]; single oral dose 10 mg to 800 mg, tests at baseline, 3 hrs and 6 days after drug administration)
COc1cc(C(C)C)c(Oc2cnc(N)nc2N)cc1S(N)(=O)=O [AF-219, 5-(2,4-diamino-pyrimidin-5-yloxy)-4-isopropyl-2-methoxy-benzenesulfonamide]	leads to taste disturbances in treated subjects	P2X3 and P2X2/3 non-selective	the effect size observed was the same	–	–	–	–	–	–	–	–	–	–
Cc1cnc(-c2cc(O[C@@H]3CCOC3)cc(C(=O)N[C@H](C)c3cnc(C(F)(F)F)nc3)c2)s1 [3-(5-methyl-1,3-thiazol-2-yl)-5-[(3R)-tetrahydrofuran-3-yloxy]-N-{(1R)-1-[2-(trifluoromethyl)pyrimidin-5-yl]ethyl}benzamide]	–	–	–	one case of nausea	no such adverse events	2 h	in few subjects only	repeatedly occurring during continued treatment starting on treatment day 4 and lasting until 5 days after end of treatment	0.5 h	No taste related adverse were observed	no relevant effects on taste perception (No relevant effects on taste perception in the context of the present invention mean that no effect on taste perception has been observed in at least 80% of subjects under treatment according to the above-described protocol over a period of 14 days)	no significant or relevant changes in taste scores were observed	no relevant effects on taste perception were observed

Reference: patent US20210220358A1, “1,3-THIAZOL-2-YL SUBSTITUTED BENZAMIDES FOR THE TREATMENT OF DISEASES ASSOCIATED WITH NERVE FIBER SENSITIZATION” (Bayer Aktiengesellschaft, priority 2018, published 2021)
